{
  "source": "patent US20030044400A1",
  "about": "“Composition and method for treating cells” (priority 2001, published 2003)",
  "key": {"[1]": {"system": "LNCaP cells", "test": "Fetuin-induced apoptosis, Hoechst staining confirmed by MTS assay", "assay_type": "cell-based, Human", "description": "The purified fetuin was tested on various cancer cell lines. […] The DNA condensation and breakage of nuclei which are the characteristics for apoptosis were observed by staining the cell with Hoechst dye at 0.1 ug/ml.\nFetuin purified by modified Spiro method was further incubated with Zinc Acetate or Barium Acetate (0.25M) at room temperature for 1 hr. Free ions were removed by repetitive concentration against 20 volumes of PBS three times. Fetuin, Zn-charged fetuin and Ba-charged fetuin (5 uM) and PBS were then separately incubated with LNCaP cells for 4 hr. Percent of cells under apoptosis was determined by Hoechst staining and confirmed by MTS assay. Each data represents the average of two assays. Zn-charged or Ba-charged fetuin may contain free Zn or Ba (about 30 uM). However, all the cell lines are not affected by Zn or Ba alone at all concentrations tested (up to 66 uM).\nVarious concentrations of Zn-charged fetuin prepared as described were incubated with cell lines for 6 hr. Percent of cell under apoptosis was determined by Hoechst staining and confirmed by MTS assay. The concentration of Zn-charged fetuin for the induction of 50% of cells under apoptosis (LD50) was determined. Each data represents the average of three assays."}, "[2]": {"system": "PC-12 cells", "test": "Neurite outgrowth of PC-12 cells", "assay_type": "cell-based", "details": "PC-12 cells in 0.5% serum+RPMI; 5uM Fetuin; over 2-3 days", "description": "PC-12 cells were seeded in 10% heat-inactivated horse serum, 5% fetal bovine serum in RPMI 1640 medium for 1-2 days. The media were changed to 0.5% serum+RPMI overnight and treated with 5uM Fetuin."}, "[3]": {"system": "transforming growth factor-beta (TGF)", "test": "Binding of transforming growth factor-beta"}, "[4]": {"system": "PC-3 induced tumor", "test": "Prostate Tumor Inhibition Model (PC-3, nude mice)", "assay_type": "in vivo, nude adult male mice", "details": "for Avg. Weight Tumor / Avg. Weight mice / Total Weight Tumor: nude mice with PC-3 tumors", "description": "The 30-35 g nude adult male mice were used for this study. The inoculum of PC-3 cells applied to induce tumor formation was adjusted with RPMI-1640 to 2×10^7 cells/0.1 ml. To induce tumor formation, a 0.1 ml suspension of PC-3 was injected subcutaneously at a site between the ears using a 26 gauge, ⅜″ needle. The tumors were allowed to grow for 38 days. The mice in the control group received 0.1 ml saline intraperitoneally for 10 days. Mice in the treated group received 10 consecutive 0.1 ml intraperitoneal injections of Fetuin adjusted by dilution in sterile deionized water to deliver dose concentration of 0.1 ml, 0.01 ml and 0.001 ml at 10 mg/ml. Tumors were weighed individually when the mice were sacrificed for subsequent histopathology study."}, "[5]": {"system": "PC-3 induced tumor", "test": "Prostate tumor (PC-3) in immunodeficient mice", "assay_type": "in vivo, immunodeficient mice (TACN: NH (S)—NuFDF homozygous males)", "details": "for reduction of prostate tumor: immunodeficient mice, 5 mg/30 g body weight, 5 days consecutive ip injection, vs control", "description": "Another set of experiments were designed using immunodeficient mice (TACN: NH (S)—NuFDF homozygous males 3-4 wks old). The 2×10^7 PC-3 cells were implanted and allowed to grow for 6 wks. The mice in the control group received 0.5 ml saline intraperitoneally for 5 days and in the treated group received 0.5 ml Fetuin for 5 days.\nThe mice divided into 5 each group in this study were TACN:NH (S)—NuFDF homozygous males 3-4 weeks old and weighed an average of 22 g at the start of the experiment and 30 g at the termination of the experiment six weeks later. The animals were induced to prostate tumor formation by inoculating 2×10^7 PC-3 cells in 0.1 ml PBS suspension on the upper half of the dorsal thorax of the mouse. The tumor will be allowed to grow for 6 weeks. The mice in the control group will receive 0.1 ml saline intraperitoneally for 5 days and the mice in the treated group will receive 0.02 ml, 0.1 ml and 0.2 ml of Fetuin 10 mg/ml per day for 5 days. Treatment will start the day after tumor inoculation. Tumor will be weighed at the end of the experiment when the mice will be sacrificed for subsequent histopathology. Animals will be monitored daily for signs of tumor and/or any toxic effects from the test material."}, "[6]": {"test": "Antigenic response after Fetuin injection", "assay_type": "in vivo", "details": "mice, rat and rabbits to bovine", "text": "However, the species are mice, rat and rabbits to bovine, not human to bovine. The amino acid sequence of Fetuin homologue between species is about 65%. Because the mechanism of Fetuin exerting the drug effect is by binding to the growth factors, this is expected to have less immune response than other protein nature drugs."}, "[7]": {"system": "immune system (splenic T- and B-cells, response to SRBC)", "details": "mouse, in vivo", "method": "The Balb/C mice weighed 20-30 g with six to eight weeks of age and divided equally between male and female are used. Fetuin is administered IV or IP to each group of six animals either a single dose or multiple doses ranging from 0.05 mg to 5 mg per 20 g body weight. The volume of each injection is 0.2 ml. Phosphate buffered saline is used as the control and dilution vehicle.\nFlow cytometric characterization of splenic T- and B-cells in Fetuin treated mice: T cells of mice can be recognized by the presence of Thy 1.2 or Thy 1.1 (depending on the genotype of the mouse), receptors isolated on the surface of peripheral T cells (lymph node, spleen and blood) as well as thymic epithelia."}, "[8]": {"details": "Fetuin 0.001 ml × 10 ip (10 mg/ml)"}, "[9]": {"details": "Fetuin 0.01 ml × 10 ip (10 mg/ml)"}, "[10]": {"details": "Fetuin 0.1 ml × 10 ip (10 mg/ml)"}, "[11]": {"details": "immunodeficient mice with PC-3, 0.5 ml Fetuin ip for 5 days, 9 mice"}},
  "data": [
    {"substance": "Fetuin: Fetal bovine fetuin purified from fetal bovine serum by modified Spiro method; 60 Kd glycoprotein, homologue of alpha 2-HS glycoprotein", "values": [
      {"measurement": "LD50 of Fetuin-induced Apoptosis", "setting": "[1]; LNCaP, Zn-charged fetuin, 6 hr, concentration for 50% of cells under apoptosis, average of three assays", "value": 1, "unit": "µM"},
      {"measurement": "induction of apoptosis", "setting": "[1]; LNCaP, purified fetuin, Hoechst dye 0.1 ug/ml", "value": "strongly induced apoptosis"},
      {"measurement": "apoptotic activity by method of preparation", "setting": "[1]; Pederson Method (Sigma) vs modified Spiro method", "value": "induced apoptosis"},
      {"measurement": "apoptosis-inducing activity", "setting": "[1]; Substitution of Zinc by Barium", "value": "completely abolished"},
      {"measurement": "apoptosis-inducing activity in LNCaP cells", "setting": "[1]; fetal vs mature fetuins at the same concentration", "value": "strongly induced apoptosis"},
      {"measurement": "neurite outgrowth", "setting": "[2]", "value": "neurite outgrowth was observed in many of the cells"},
      {"measurement": "binding of transforming growth factor-beta (TGF)", "setting": "[3]", "value": "high affinity"},
      {"measurement": "prostate tumor size compared to the control group", "setting": "[4]; highest doses", "value": 40, "unit": "%"},
      {"measurement": "Avg. Weight Tumor", "setting": "[4]; [8]", "value": 2.03, "unit": "g"},
      {"measurement": "Avg. Weight mice", "setting": "[4]; [8]", "value": 33.9, "unit": "g"},
      {"measurement": "Total Weight Tumor", "setting": "[4]; [8]", "value": 6.1, "unit": "g"},
      {"measurement": "Avg. Weight Tumor", "setting": "[4]; [9]", "value": 2.08, "unit": "g"},
      {"measurement": "Avg. Weight mice", "setting": "[4]; [9]", "value": 35.3, "unit": "g"},
      {"measurement": "Total Weight Tumor", "setting": "[4]; [9]", "value": 6.24, "unit": "g"},
      {"measurement": "Avg. Weight Tumor", "setting": "[4]; [10]", "value": 1.01, "unit": "g"},
      {"measurement": "Avg. Weight mice", "setting": "[4]; [10]", "value": 32.0, "unit": "g"},
      {"measurement": "Total Weight Tumor", "setting": "[4]; [10]", "value": 3.04, "unit": "g"},
      {"measurement": "Ave. Mouse Weight (gm)", "setting": "[5]; [11]", "value": 30.6, "unit": "gm"},
      {"measurement": "Ave. Tumor Weight (gm)", "setting": "[5]; [11]", "value": 0, "unit": "gm"},
      {"measurement": "Tumor Incidence (%)", "setting": "[5]; [11]", "value": 0, "unit": "%"},
      {"measurement": "reduction of prostate tumor", "setting": "[5]", "value": "up to 100%"},
      {"measurement": "reduction of prostate tumor", "setting": "[5]; listed as Fetal fetuin", "value": 100, "unit": "%"},
      {"measurement": "hypersensitivity reaction after Fetuin injection", "setting": "[6]", "value": "no hypersensitivity reaction was shown"},
      {"measurement": "cell surface density of s-Ig on the B-cells", "setting": "[7]", "value": "no significant differences"},
      {"measurement": "fraction of lymphocytes which were B-cells (s-Ig+)", "setting": "[7]", "value": "no differences between treatment groups"},
      {"measurement": "fraction of splenic lymphocyte that were T-cells", "setting": "[7]", "value": "remained constant"},
      {"measurement": "mean level of expression of Thy 1.2", "setting": "[7]", "value": "did not differ significantly"}
    ]}
  ]
}
